Like-named read-outs stand apart in the source and are kept apart here.
Legend:
VEGFR-2 [1] = conditions: read-out: IC50 against VEGFR-2; cited from earlier work
HeLa/DDP cells = assay: MTT assay, cisplatin-resistant HeLa/DDP cells; type: cell-based, human; conditions: single agent; for RI (resistance index): HeLa/DDP versus HeLa; for IC50: Homo sapiens, cisplatin-resistant HeLa/DDP cells, 48 h, read-out: 48h IC50 HeLa/DDP
Experimental: The cytotoxicity of the target compounds were measured in vitro using the MTT assay. Cells grown in the logarithmic phase were counted and seeded in 96-well cell culture plates (5 × 10^3 cells per well) for 24 h to allow attachment of cells to the wall of the plate. […] Next, 20 μL of 5 mg.mL^−1 MTT solution was added to each well and cultured for 4 h. The old solution was discarded, replaced with 150 μL DMSO solution per well, and shaken for 10 min. The OD value was measured under 490 nm, and the inhibition rate was calculated. The nonlinear regression fitting of the cell growth rate was carried out using SPSS 23.0 software, and the IC50 of the compound was calculated. […] A complete medium containing only cells was used as the blank control, whereas a complete medium without cells was the negative control group.
To reduce the adverse reactions caused by the fixation of drug resistance reversal agents, the concentration that reduces the proliferation rate of tumor cells by less than 10% was selected.

SiHa cells = assay: MTT antiproliferative assay, SiHa cells; type: cell-based, human; conditions: Homo sapiens, 48 h, mean ± SD
Experimental: (§1) HeLa and SiHa cell lines were obtained from the Procell Life Science Technology Co., Ltd. (Wuhan, China); H8 cell line was obtained from the Shanghai HonSun Biological Technology Co., Ltd. (Shanghai, China); HUVEC cell line was obtained from the Saibaikang (Shanghai) Biotechnology Co., Ltd. (Shanghai, China); HeLa/DDP cell line was obtained from the Guangzhou Jenniobio Biotechnology Co., Ltd. (Guangzhou, China). HeLa, SiHa, H8, and HeLa/DDP cells were cultured in DMEM medium (HyClone). The VEGF of 50 ng/mL was used as the promoter of the VEGFR-2 receptor on HUVEC cell membrane surfaces, and their inhibitory effects on VEGFR-2 were determined. All the mediums were supplemented with 10% FBS (HyClone, GE Healthcare, Australia). Cells were maintained at subconfluency at 37 °C in humidified air containing 5% CO2. The cells were monitored daily and maintained at 80% cell density. All compounds tested were dissolved in DMSO and then diluted by the culture medium before the treatment of cultured cells. Identification reports are available for all types of cell lines involved in this study.
(§2) The cytotoxicity of the target compounds were measured in vitro using the MTT assay. Cells grown in the logarithmic phase were counted and seeded in 96-well cell culture plates (5 × 10^3 cells per well) for 24 h to allow attachment of cells to the wall of the plate. […] Next, 20 μL of 5 mg.mL^−1 MTT solution was added to each well and cultured for 4 h. The old solution was discarded, replaced with 150 μL DMSO solution per well, and shaken for 10 min. The OD value was measured under 490 nm, and the inhibition rate was calculated. The nonlinear regression fitting of the cell growth rate was carried out using SPSS 23.0 software, and the IC50 of the compound was calculated. […] There were 6 compound holes in each group, and the experimental results were presented as the average of 3 experiments. A complete medium containing only cells was used as the blank control, whereas a complete medium without cells was the negative control group. Cisplatin and sorafenib were utilized as the positive control group, and the target compound was the experimental intervention group.

HUVEC cells = assay: In vitro HUVEC inhibitory assay (MTT); type: cell-based; conditions: Homo sapiens, 48 h, ± SD
Experimental: as §1, §2
After incubation for 24 h, the cell was collected using centrifugation and washed twice using PBS chilled to 0 °C. Then, the cells were homogenized in RIPA lysis buffer and 1% PMSF, 1% mixed phosphatase inhibitor (Solarbio, Beijing, China). The lysates were incubated on ice for 30 min, intermittently vortexed every 5 min, and centrifuged at 12,000 rpm for 20 min to harvest the supernatants.

H8 cells = assay: MTT cytotoxicity assay, normal cervical epithelial H8 cells; type: cell-based, human; conditions: Homo sapiens, 48 h, mean ± SD
Experimental: as §1, §2

HeLa cells = assay: MTT antiproliferative assay, HeLa cells; type: cell-based, human; conditions: Homo sapiens, 48 h
Experimental: as §1, §2

VEGFR-2 [2] = molecular target: T1, VEGFR-2 (Homo sapiens, UniProt P35968); assay: VEGFR-2 inhibition test (human p-VEGFR-2 ELISA in HeLa cells); type: cell-based; conditions: ± SD, read-out: 48h IC50 VEGFR-2 inhibitory effect
T1 construct: endogenous in cells; host or cells: HeLa cells
T1 sequence (P35968 20-1356): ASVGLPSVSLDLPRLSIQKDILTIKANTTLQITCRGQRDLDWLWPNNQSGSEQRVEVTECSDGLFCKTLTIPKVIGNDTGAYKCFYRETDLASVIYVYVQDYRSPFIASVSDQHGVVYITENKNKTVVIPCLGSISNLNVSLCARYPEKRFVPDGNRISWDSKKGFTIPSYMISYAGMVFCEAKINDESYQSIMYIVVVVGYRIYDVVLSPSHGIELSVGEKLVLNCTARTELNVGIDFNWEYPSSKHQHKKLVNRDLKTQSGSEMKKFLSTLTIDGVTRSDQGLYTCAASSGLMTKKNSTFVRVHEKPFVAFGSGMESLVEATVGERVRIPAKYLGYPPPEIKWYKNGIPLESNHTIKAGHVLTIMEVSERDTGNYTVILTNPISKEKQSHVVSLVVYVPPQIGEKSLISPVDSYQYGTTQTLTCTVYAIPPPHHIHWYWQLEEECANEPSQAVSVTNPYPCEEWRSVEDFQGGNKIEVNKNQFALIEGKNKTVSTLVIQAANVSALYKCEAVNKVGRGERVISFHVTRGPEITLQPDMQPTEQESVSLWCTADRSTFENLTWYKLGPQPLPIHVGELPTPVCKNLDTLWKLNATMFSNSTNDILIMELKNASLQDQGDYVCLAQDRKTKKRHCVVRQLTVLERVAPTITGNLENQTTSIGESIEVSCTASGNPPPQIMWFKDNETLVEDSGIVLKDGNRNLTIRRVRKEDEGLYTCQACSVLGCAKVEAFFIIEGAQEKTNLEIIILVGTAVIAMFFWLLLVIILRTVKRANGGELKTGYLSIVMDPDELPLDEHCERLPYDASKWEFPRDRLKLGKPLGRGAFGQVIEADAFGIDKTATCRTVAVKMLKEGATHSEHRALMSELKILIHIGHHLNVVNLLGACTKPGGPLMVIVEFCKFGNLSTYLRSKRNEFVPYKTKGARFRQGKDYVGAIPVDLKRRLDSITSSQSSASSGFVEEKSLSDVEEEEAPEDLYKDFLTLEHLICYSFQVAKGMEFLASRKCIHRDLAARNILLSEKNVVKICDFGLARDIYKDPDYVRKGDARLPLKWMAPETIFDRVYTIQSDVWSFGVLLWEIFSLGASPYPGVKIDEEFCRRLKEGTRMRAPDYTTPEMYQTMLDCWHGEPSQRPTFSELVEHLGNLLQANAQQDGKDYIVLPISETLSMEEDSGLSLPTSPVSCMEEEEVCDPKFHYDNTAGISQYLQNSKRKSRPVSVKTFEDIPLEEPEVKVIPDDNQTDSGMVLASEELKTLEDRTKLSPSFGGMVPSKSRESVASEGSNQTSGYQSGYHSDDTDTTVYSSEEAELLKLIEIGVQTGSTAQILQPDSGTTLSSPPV
Experimental: Specimens, standards, and HRP-labeled detection antibodies were added sequentially to the pre-covered microtiter wells containing phosphorylated vascular endothelial growth factor receptor 2 (p-VEGFR2) antibodies, warmed, and washed thoroughly. The substrate TMB was added for color development. This substrate is converted to blue using peroxidase catalysis to a final yellow color due to the action of acid. […] Curve fitting was performed using SPSS 23.0 software to calculate IC50.

HepG2 cells = conditions: cited from earlier work
PC-3 cells = conditions: cytotoxic effect; cited from earlier work
MCF-7 cells = conditions: cytotoxic effect; cited from earlier work
[3] = MTT, mean ± SD, read-out: 48h IC50 HeLa
[4] = single agent, read-out: 48h IC50 HeLa (Table 4)

| Structure (SMILES) | IC50 (VEGFR-2 [1]) [µM] | RI (resistance index) (HeLa/DDP cells) | IC50 (HeLa/DDP cells) [µM] | IC50 (SiHa cells) [µM] | IC50 (HUVEC cells) [µM] | IC50 (H8 cells) [µM] | IC50 (HeLa cells; [3]) [µM] | IC50 (HeLa cells; [4]) [µM] | IC50 (VEGFR-2 [2]) [µM] | also measured |
| --- | --- | --- | --- | --- | --- | --- | --- | --- | --- | --- |
| CNC(=O)c1cc(Oc2ccc(C(=O)/C=C/c3ccccc3)cc2)ccn1 [compound 9] | 1.1 | – | – | – | – | – | – | – | – | – |
| COc1cc(O)c(C(=O)/C=C/c2ccc(CN3CCC(C)CC3)cc2)cc1CN1CCCC1 [6k, (E)-1-(2-hydroxy-4-methoxy-5-(pyrrolidin-1-ylmethyl)phenyl)-3-(4-((4-methylpiperidin-1-yl)methyl)phenyl)prop-2-en-1-one] | – | 1.13 | 17.3 ± 2.07 | 24.83 ± 0.17 | 20.2 ± 1.19 | 30.1 ± 0.44 | 15.22 ± 0.08 | 15.22 ± 0.08 | 1.67 ± 0.18 | – |
| CNC(=O)c1cc(Oc2ccc(C(=O)/C=C/c3cc(OC)c(OC)c(OC)c3)cc2)ccn1 [compound 8] | 3.2 | – | – | – | – | – | – | – | – | cytotoxic activity relative to sorafenib (HepG2 cells; HepG2, MCF-7 and PC-3 cells): 1.03–6.14 times; IC50 (HepG2 cells; cytotoxic effect, HepG2 cells): 0.56 ± 0.83 µM; IC50 (PC-3 cells): 3.15 ± 0.81 µM; IC50 (MCF-7 cells): 3.88 ± 1.03 µM |
| O=C(/C=C/c1ccccc1)c1ccccc1 [Chalcone] | – | 1.23 | 91 ± 6.22 | 66.5 ± 2.88 | 77.5 ± 4.2 | 77.7 ± 6.85 | 74 ± 4.48 | 74 ± 4.48 | > 20 | – |
| COc1cc(O)c(C(=O)/C=C/c2ccc(CN3CCC(C)CC3)cc2)cc1CN1CCOCC1 [6o, (E)-1-(2-hydroxy-4-methoxy-5-(morpholinomethyl)phenyl)-3-(4-((4-methylpiperidin-1-yl)methyl)phenyl)prop-2-en-1-one] | – | – | – | 63.7 ± 2.18 | – | 80 ± 8.92 | 65.8 ± 1.36 | – | – | melting point: 104.2 to 105.4 °C |
| CNC(=O)c1cc(Oc2ccc(C(=O)/C=C/c3cccc(Br)c3)cc2)ccn1 [compound 7] | 0.72 | – | – | – | – | – | – | – | – | – |
